According to ChEMBL document CHEMBL1201862, “PubChem BioAssay data set” (2004):
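Method: 48-hour compound exposure of cells in 96-well plates, five concentrations, linear interpolation of endpoints. Here, GI50 denotes the concentration required for 50% inhibition of growth.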 The source made the active and inactive calls. Rule as the data show it: active = GI50 up to about 1.1 µM and inactive = higher.

Tests used:
Assay in all cases: NCI tumour cell line growth inhibition, 48 h
OVCAR-4 = tested on: OVCAR-4
ACHN = tested on: ACHN
DU-145 = tested on: DU-145
HOP-92 = tested on: HOP-92
EKVX = tested on: EKVX
IGROV-1 = tested on: IGROV-1
HOP-62 = tested on: HOP-62
MCF7 = tested on: MCF7
NCI-H226 = tested on: NCI-H226
SK-MEL-2 = tested on: SK-MEL-2
M14 = tested on: M14
RXF 393 = tested on: RXF 393
786-0 = tested on: 786-0
NCI-H23 = tested on: NCI-H23
OVCAR-5 = tested on: OVCAR-5
SR = tested on: SR
RPMI-8226 = tested on: RPMI-8226
HCC 2998 = tested on: HCC 2998
SNB-75 = tested on: SNB-75
SW-620 = tested on: SW-620

Measured: GI50

CC(=O)Oc1cc2c(cc1OCC(F)(F)F)[C@H]1CC[C@]3(C)[C@@H](OC(C)=O)CC[C@H]3[C@@H]1CC2=O
inactive: OVCAR-4 17.5 µM | ACHN 18.9 µM | DU-145 20.7 µM | HOP-92 13.2 µM | EKVX 22.8 µM | IGROV-1 18.7 µM | HOP-62 25.1 µM | MCF7 18.9 µM | NCI-H226 46.6 µM | SK-MEL-2 16.9 µM | M14 26.4 µM | RXF 393 13.9 µM | 786-0 26.4 µM | NCI-H23 21.2 µM | OVCAR-5 19.8 µM | SR 20.7 µM | RPMI-8226 22.3 µM | HCC 2998 16.8 µM | SNB-75 16 µM | SW-620 21.7 µM

N#CCCN(CCC#N)c1ccc(C(/N=N/c2ccc(Cl)cc2)=N\c2ccccc2)cc1
inactive: OVCAR-4 11.6 µM | ACHN 13.4 µM | DU-145 13.4 µM | HOP-92 16.4 µM | EKVX 12.1 µM | IGROV-1 11.7 µM | HOP-62 13.2 µM | MCF7 11.7 µM | NCI-H226 16 µM | SK-MEL-2 2.09 µM | M14 12.9 µM | RXF 393 15.4 µM | 786-0 14.9 µM | NCI-H23 12.6 µM | OVCAR-5 12.4 µM | SR 16 µM | RPMI-8226 43.6 µM | HCC 2998 6.55 µM | SNB-75 17.4 µM | SW-620 18 µM

CC(C)/C(Cl)=N\OC(=O)Nc1ccc(F)c([N+](=O)[O-])c1
inactive: OVCAR-4 4.07 µM | ACHN 1.79 µM | DU-145 18.2 µM | HOP-92 2.22 µM | EKVX 11.7 µM | IGROV-1 6.53 µM | HOP-62 17.8 µM | MCF7 17.7 µM | NCI-H226 23.7 µM | SK-MEL-2 16.2 µM | M14 3.88 µM | RXF 393 18 µM | 786-0 2.78 µM | NCI-H23 17.1 µM | OVCAR-5 20.6 µM | SR 5.65 µM | RPMI-8226 2.43 µM | HCC 2998 10.5 µM | SNB-75 14.2 µM | SW-620 2.35 µM

O=S(=O)(O)/C(=N\c1cccc(Cc2ccccc2)c1)Nc1cccc(Cc2ccccc2)c1
inactive: OVCAR-4 19.5 µM | ACHN 17.4 µM | DU-145 17 µM | HOP-92 14.9 µM | EKVX 16.7 µM | IGROV-1 16.6 µM | HOP-62 32.6 µM | MCF7 19.2 µM | NCI-H226 18 µM | SK-MEL-2 21.6 µM | M14 16.4 µM | RXF 393 16.4 µM | 786-0 15.2 µM | NCI-H23 16.4 µM | OVCAR-5 18.1 µM | SR 21.9 µM | RPMI-8226 23.8 µM | HCC 2998 18.8 µM | SNB-75 16.1 µM | SW-620 23.7 µM

CC1(C)[C@@H]2CC[C@@]1(C)C1(S[S+]1[O-])C21Cc2ccccc2C1 (stereo not given in full)
inactive: OVCAR-4 15.6 µM | ACHN 20.9 µM | DU-145 21.3 µM | HOP-92 23.3 µM | EKVX 23.8 µM | IGROV-1 17.2 µM | HOP-62 81.1 µM | MCF7 22.1 µM | NCI-H226 > 100 µM | SK-MEL-2 17.2 µM | M14 33.4 µM | RXF 393 18.5 µM | 786-0 16.4 µM | NCI-H23 31.8 µM | OVCAR-5 20.6 µM | SR 14.5 µM | RPMI-8226 21 µM | HCC 2998 18.5 µM | SNB-75 31 µM | SW-620 14.7 µM

O=c1[nH]cc(F)c(=O)[nH]1 [FLUOROURACIL]
inactive: OVCAR-4 69.7 µM | ACHN 9.62 µM | DU-145 9.29 µM | HOP-92 162 µM | EKVX 299 µM | IGROV-1 14.3 µM | HOP-62 21.8 µM | MCF7 1.75 µM | NCI-H226 250 µM | SK-MEL-2 372 µM | M14 46.5 µM | RXF 393 54.1 µM | 786-0 11.9 µM | NCI-H23 12.2 µM | OVCAR-5 172 µM | SR 4.36 µM | RPMI-8226 4.91 µM | HCC 2998 1.6 µM | SNB-75 181 µM | SW-620 27.7 µM
